Data set [1] has as its system rat cerebellar granule neurons cultured on monolayers of NIH 3T3 fibroblasts. Nature of the data set: in vitro neurite outgrowth co-culture assay (axon regeneration). Type of data set: cell-based. The settings on record: for stimulation of neurite outgrowth (in words): agent included in coculture medium, 16 hour culture; for peptide concentration giving maximal effects in neurite outgrowth assay: rat cerebellar neurons on 3T3 monolayer, 16 hours. As to the method:
An example of such an assay is a co-culture assay in which neurons are cultured on top of cellular monolayers for 16 hours, before being fixed and stained with a neuron-specific antibody. The mean length of the longest neurite per cell can then be determined by fluorescence microscopy using an appropriate image analysis programme. The neurons may be, for example, (in this case cerebellar granule cell neurons, hippocampal, dorsal root ganglion, olfactory, motor or dopaminergic neurons. The cellular monolayer is, for example NIH 3T3 fibroblasts.
Monolayers of NIH 3T3 fibroblasts were established by seeding 80,000 cells per well in Lab-Tek 8-chamber slides previously coated sequentially with poly-L-lysine and fibronectin and culturing them overnight in DMEM+10% FCS growth medium.
Cerebellum was dissected from post-natal day 2-4 rat pups and the meninges and extraneous tissue discarded. Cerebellum was chopped into small pieces and trypsinised for 10 minutes at 37° C. Trypsin was neutralised using growth medium and the cells pelletted at 1000×g for 7 minutes. Cerebellar neurons were then resuspended in SATO growth medium containing 2% FCS, counted, and plated on top of the fibroblast monolayer at a density of 1,500 neurons per well. After 16 hours, cocultures were fixed with 4% para-formaldehyde and stained with an anti-GAP43 neuron-specific antibody, which was a gift from Dr Graham Wilkin, Imperial College Department of Biochemistry, London, but any other neuron-specific marker can be used.
The mean neurite length of 150-200 neurons per well was determined using a fluorescent microscope and Zeiss KS300 imaging software.
Peptides A, A(d), B, C, D, E, and F were each incorporated in the SATO medium at a range of concentrations from 0 to 200 μg/ml. Nerve growth factor (NGF) and fibroblast growth factor (FGF2) were used as controls at the same range of concentrations.

The subject of data set [2] is NIH 3T3 cells. Nature of the data set: NIH 3T3 cell survival MTS assay in serum-free DMEM (Example 6). Type of data set: cell-based. The settings on record: for survival of NIH3T3 cells in serum-free conditions (in words): FGF2 only at low concentrations; for survival of NIH3T3 cells: low-density cultures. The protocol:
NIH 3T3 cells are plated in 96-well plates at a density of 5,500 cells/well in 100 μl DMEM containing 0.5% FCS. After 24 hours, this medium is aspirated from the wells and replaced with 100 μl serum-free DMEM alone, or supplemented with 0.5% FCS (positive control), or a single potential survival factor, with four identical wells set up for each condition. The cells are left for up to seven days at 37 degrees and 8% CO2 before the cell survival is determined using an MTS assay. In this assay 20 μl of MTS substrate is added to each 100 μl well and the plate left in the incubator for up to four hours. Respiring cells produce a coloured reaction product that can be read using a spectrophotometer at 490 nm. […] The mean absorbance at 490 nm+/−SEM is determined for the four identically set up wells. Wells containing a known survival factor such as insulin will contain more living cells after three days than cells cultured in unsupplemented medium.
Background: Formazan colour is commonly taken as a measure of viable cells.

Another data set has as its system DRG neurons. Type of data set: cell-based, rat. The settings on record: 10 ng/ml, 10 days in SATO medium. As to the method: DRG neurons were taken from embryonic day 16 rates and cultured at a density of-10,000 cells/well of a 96-well plate-over 10 days in SATO medium, unsupplemented or supplemented with 10 ng/ml NGF, 10 ng/ml FGF2 or 800 ng/ml Peptide A(d). An OD of 100% reflects the baseline cell survival n the absence of any supplement in the medium.

In the next data set the test system is NIH3T3 cells. The data set is described as follows: cell survival/proliferation at two plating densities. The text has this:
FGF2 is a mitogen for a range of cells, including NIH3T3 cells.

In a further data set the test system is NIH 3T3 fibroblasts. Nature of the data set: survival of 3T3 fibroblasts in serum-free DMEM (MTS and morphologic method, Example 5a). It counts as cell-based. The settings on record: in the presence of FGF. As to the method: NIH 3T3 fibroblasts were plated in each well of a 96-well microtitre plate at a density of 7,000 cells per well in DMEM containing 3% FCS and left to attach overnight. The following day the growth medium was removed and replaced with 0.1 ml DMEM supplemented with FGF or Peptide A(d) or both, eight wells for each condition. The negative control was DMEM alone (maximal cell death) and the positive control was supplementation with 0.5% FCS (maximal cell survival).
Six days later (seven days from first plating the cells), the relative number of living cells in each well was assessed by adding the mitochondrial substrate MTS, [3-(4,5-dmethylthiazol-2-yl)-5-(3-carboxymethoxyphenyl)-2-(4-sulphophenyl)-2H-tetrazolium, inner salt), for four hours before reading the optical density on a microtitre plate reader at a wavelength of 490 nm. The optical density gives a measure of the number of respiring cells present in each well at the end of the assay period.
In addition to the biochemical assay, survival was assessed qualitatively using a morphologic method in which cells were plated in 8-chamber Lab Tek slides in DbEM alone (negative control), or DMEM supplemented with 0.5 ng/ml FGF2; 0.5% FCS (positive control), or 25-200 μg/ml Peptide A(d). After three days the cells were fixed with 4% paraformaldehyde, permeablised with methanol and stained with TRITC-conjugated falloidin to visualise the cell cytoskeleton.

For data set [3], the system named is cells in S phase (bromodeoxyuridine incorporation into DNA). Nature of the data set: bromodeoxyuridine incorporation (entry into S phase) mitogenicity assay. Type of data set: cell-based. The settings on record: six hours. The protocol:
The mitogenicity of an agent can be determined by testing its ability to stimulate entry of cells into ‘S’ phase in readiness for cell division. This is done by standard methodology and involves incubating cells in the presence of a potential mitogen in DMEM supplemented with bromodeoxyuridine. After six hours the cells are fixed and stained with an antibody recognising bromodeoxyuridine. Cells in S phase can be distinguished by their incorporation of bromodeoxyuridine into DNA.

A further data set deals with MAP kinase. The data set is described as follows: Western blot for tyrosine phosphorylated MAP kinase in NIH 3T3 cells. It counts as cell-based. The settings on record: 10 minutes. As to the method:
A Western blot (FIG. 2f) was obtained as follows: one million NIH 3T3 cells were serum starved for 24 hours then challenged with the following agents: DMEM, 10% FCS, 0.1 ng/ml FGF2, 1 ng/ml FGF2, 10 ng/ml FGF2, 5 μg/ml insulin, 400 μg/ml peptide 52 for 10 minutes at 37 degrees Celsius before being lysed in sample buffer and band separated by PAGE. Proteins were transferred to PVDF membranes and probed with an antibody that recognises tyrosine phosphorylated MAP kinse (upper panel).
(In western blotting, separated proteins are transferred to a membrane and probed.)

Data set [4] relates to NIH 3T3 cells. Nature of the data set: NIH 3T3 survival and morphology, TRITC-conjugated phalloidin staining. The settings on record: three days. It counts as cell-based.
The subject of the next data set is L6 cell line. The data set is described as follows: survival of L6 cell line lacking FGF receptors. The settings on record: FGF2 0.1, 1 and 10 ng/ml; Peptide A(d) 100 and 400 μg/ml. It counts as cell-based. The protocol: FIG. 2d compares the effects of DMEM, FCS, FGF2 at 0.1, 1 and 10 ng/ml, insulin at 0.5 and 5 μg/ml, and Peptide A(d) at 100 and 400 μg/ml.

Data set [5] relates to Oligodendrocyte progenitors (O4 positive). It counts as cell-based, rat. The settings on record: six days in culture, medium supplemented with insulin. The source says: Oligodendrocyte progenitors (O4 positive) are purified from postnatal day 4 rat cerebral cortex. First a trypsinised preparation of cortical cells is dissociated to single cell suspension and pre-plated to remove unwanted adherent cells such as microglia and macrophages. Oligodendrocyte progenitors express the O4 antigen, and can be purified by panning on petri-dishes coated with anti O4 antibodies. Unbound cells are removed by gentle washing, then O4 positive cells are removed by triturating them off the plate with DMEM containing 1% FCS, through a flame-polished pasteur pipette. O4 positive cells are plated on polyornithine-coated glass coverslips at a density of 500,000 cells per well in minimal growth medium containing insulin or the peptide Ac-DRVEPYSSTA[lys]2[lys] i.e. [{Ac-DRVEPYSSTA}2-K]2-K-OH, Peptide A(d), for six days, before being fixed and stained with the anti O4 antibody. Viable O4 positive cells are counted for each condition

[6] abbreviates: insulin 0.5 pg/ml, FGF2 0.1 ng/ml, Peptide A(d) 10 ng/ml.

Several values for one entry are separate records, joined by “and”; a condition that tells them apart may be missing. Identical values can stand only once. Entries after “also recorded” stand apart in the source; their conditions may differ. No end group written: not given here.

Take Ac-ARSEPYSSTA-amide (Ac-ARSEPYSSTA-NH2): the “stimulation of neurite outgrowth (in words)” value (“stimulation” for short) in data set [1] is on record as “do not”.

Turning to Ac-ARVEPYSSTA-amide (Ac-ARVEPYSSTA-NH2), the “stimulation” value in data set [1] is listed as “do not”.

Ac-PYSSTA-NH2: the “effect on NCAM-stimulated neurite outgrowth” value in [1] (NCAM-stimulated, low peptide concentrations) is given as “able to inhibit NCAM-stimulated neurite outgrowth”. In addition, the “stimulation” value in data set [1] is recorded as “unable to stimulate neurite outgrowth”.

As for “Ac-SIDRVEPYSSTAQ-amide (Ac-SIDRVEPYSSTAQ-NH2) [synthetic 13 amino acid peptide derived from the first fibronectin type III domain of NCAM]”, in data set [1], the “concentration at which neurite length equalled that stimulated by NCAM” value stood at 100 µM and the “stimulation” value was “dose-dependent increase in neurite outgrowth”.

Turning to “Acetyl-DAVEPYSSTA-amide (Ac-DAVEPYSSTA-NH2) [Peptide F]”, in data set [1], the “stimulation” value was “retain the full ability to stimulate neurite outgrowth”.

“Acetyl-DRSEPYSSTA-amide (Ac-DRSEPYSSTA-NH2) [Peptide E]”: in data set [1], the “stimulation” value is listed as “retain the full ability to stimulate neurite outgrowth”; the “peptide concentration giving maximal effects in neurite outgrowth assay” value was 50-100 μg/ml and 50-100 μM.

For the substance “Acetyl-DRVE-amide (Ac-DRVE-NH2) [Peptide B]”, in data set [1], the “stimulation” value is on record as “could stimulate the response”; the “peptide concentration giving maximal effects in neurite outgrowth assay” value was 75 μg/ml and 150 μM. In addition, in the data set on NIH 3T3 cells [2], the “survival of NIH3T3 cells in serum-free conditions (in words)” value is recorded as “able to stimulate cell survival”.

Consider Acetyl-EGME-amide [Peptide C], for which, in data set [1], the “stimulation” value is “stimulates neurite outgrowth to the same extent as Ac-DRVE-amide”; the “peptide concentration giving maximal effects in neurite outgrowth assay” value was 38 μg/ml and 75 μM. Further, in the data set on NIH 3T3 cells [2], the “survival of NIH3T3 cells in serum-free conditions (in words)” value is “able to stimulate cell survival”.

As for “Acetyl-EGMEGM-amide (Ac-EGMEGM-NH2) [Peptide D]”, in [1], the “stimulation” value is listed as “equally active” and the “peptide concentration giving maximal effects in neurite outgrowth assay” value was determined as 100 µM.

Consider FGF2: fibroblast growth factor (FGF2), for which the “increase in DRG neuron survival over unsupplemented baseline” value in the data set with DRG neurons amounted to 73%. Further, the “effect on cells plated at low density” value in the data set with NIH3T3 cells (5,500 cells per well, 10 ng/ml FGF2) is “stimulates apoptosis”. Further, the “cells remaining compared with the peptide” value in the data set on NIH 3T3 fibroblasts was “far fewer cells remaining”. Moreover, the “stimulation” value in [1] is “approximately doubles; also recorded: stimulates neurite outgrowth in this assay with a biphasic dose-response curve”. Further, the results for the “mitogenicity (entry into S phase)” value in [3] (FGF2 0.1 ng/ml) and in data set [3] (FGF2 10 ng/ml) were “unable to stimulate entry into S phase” and “mitogenicity of 10 ng/ml FGF2 can be seen”, respectively. The MAP kinase activation entry with MAP kinase (FGF2 0.1 ng/ml) was “did not; also recorded: do not”; with MAP kinase (FGF2 1 or 10 ng/ml), “resulted in MAP kinase activation; also recorded: stimulate MAP kinase activation”. Further, the “cell survival / morphology” value with NIH 3T3 cells [4] (FGF2 1 and 10 ng/ml) was “reduced in number, and appear apoptotic”; in the data set on NIH 3T3 cells [4] (setting [6]) it was “stimulate cell survival”. In the data set with L6 cell line, the “survival of L6 cell line” value is listed as “unable to stimulate the survival”. For the same substance, the “survival of NIH3T3 cells” value with NIH 3T3 cells [2] (FGF2 1 ng/ml) is on record as “ineffective”; in the data set with NIH 3T3 cells [2] (FGF2 10 ng/ml, three days), “stimulates apoptosis”. Also, in the data set on NIH 3T3 cells [2], the “survival of NIH3T3 cells in serum-free conditions (in words)” value is “stimulate dose-dependent survival”.

For the substance NGF: Nerve growth factor (NGF), in the data set on DRG neurons, the “increase in DRG neuron survival over unsupplemented baseline” value was 121%. In addition, the “stimulation” value in data set [1] is listed as “approximately doubles”.

On to “[{Ac-ADTRSVSEYP}2-K]2-K-OH (also: branched lysine tetramer: four chains on [K]2-K core, core C-terminus free acid (-OH)) [Ac-ADTRSVSEYP [lys]2[lys], 'scrambled' version of Peptide A(d)]”, for which the “survival of NIH3T3 cells in serum-free conditions (in words)” value with NIH 3T3 cells [2] is “ineffective”.

With “[{Ac-ARSEPYSSTA}2-K]2-K-OH (also: branched lysine tetramer: four chains on [K]2-K core, core C-terminus free acid (-OH)) [Ac-ARSEPYSSTA [lys]2[lys], "mutated" multimeric peptide]”, in the data set with NIH 3T3 cells [2], the “survival of NIH3T3 cells in serum-free conditions (in words)” value was “stimulated cell survival, though not as potently as the parent peptide”.

In the case of insulin: known survival factor, the cell proliferation entry with NIH3T3 cells (11,000 cells per well, FGF2 10 ng/ml) is “stimulates cell proliferation”. Also, the “cells originally plated that survive” value in data set [5] is 25%. In addition, in the data set on MAP kinase (insulin 5 μg/ml), the MAP kinase activation entry is reported as “showed a small activation; also recorded: do not”. The “cell survival / morphology” value in the data set with NIH 3T3 cells [4] (setting [6]) was “stimulate cell survival”. In addition, in the data set with NIH 3T3 cells [2], the “survival of NIH3T3 cells in serum-free conditions (in words)” value was “stimulate dose-dependent survival”.

As to “soluble NCAM: soluble NCAM (Neuronal Cell Adhesion Molecule)”, in [1], the “stimulation” value is reported as “approximately doubles”.

The values above are taken from patent publication US7304129B2 (Imperial Innovations Limited, priority 2000, dated 2007).
